Series [1] in a line: Brain concentrations in the rat after oral dosing (observed). Type of series: in vivo, male Wistar rats. Conditions: oral 4 mg/kg. The source says: Animal Care and Welfare Committee of Institute of Materia Medica, Chinese Academy of Medical Sciences approved all animal protocols (1 Xian nong tan Street, Xicheng District, Beijing, China; Permission Number: SYXK 2014-0023, Expiration: 06 Aug, 2019). All animal programs are in compliance with the Guide for the Care and Use of Laboratory Animals issued by Beijing Association on Laboratory Animal Care (BALAC). Buagafuran formulation of PVP was suspended in deionized water and was orally administered at 4 or 8 mg/kg to male Wistar rats (weighing 180–200 g). Brain samples treated with the dose of 4 mg/kg and blood samples of both treatments were collected over 3 h. Plasma samples were obtained by centrifugation, and brain tissues were homogenized in a threefold volume (w/v) of saline. Buagafuran concentrations in plasma and brain samples were quantitated by an LC-MS/MS method ([Yang et al., 2011]).
A volume of 200 μL plasma or tissue homogenate was mixed with 100 μL IS (10 ng/mL) followed by addition of 2 mL hexane. After vortexing for 2 min, the mixture was centrifuged for 5 min at 3000 g. The extracted solution was combined and evaporated to dryness at 25°C. […] The outlet of the column was detected in positive ionization electrospray mode with selected reaction monitoring. The monitored transitions of buagafuran and IS were m/z 245→105 and 500→142, respectively. […]

Series [2] in a line: PBPK simulation in rat (GastroPlus). The source says:
GastroPlus^TM software (version 8.5) was used to perform all simulations, (Simulations Plus, Inc., Lancaster, CA, United States). The absorption of oral formulations from the GI tract was modeled by the advanced compartmental absorption and transit (ACAT^TM) model implemented in GastroPlus ([Agoram et al., 2001]; [Kuentz et al., 2006]; [Huang et al., 2009]; [Zhang et al., 2011]). Input parameters in the ACAT model include three groups: formulation properties, physicochemical properties and pharmacokinetic parameters. […] The immediate release (IR) suspension for rat and IR capsule for human were selected for simulation of buagafuran in GastroPlus^TM. The ACAT model consists of nine compartments that mimic the GI tract. Each GI tract has an associated ASF. ASF is the multiplier used to scale the permeability to account for different surface-to-volume ratios, pH effects, transporter differences, and other factors that affect absorption between different compartments ([Zhang et al., 2011]). Four coefficients C1–C4 are used to calculate ASF. And there are eight basic ASF models in version 8.5. […]
The pharmacokinetic parameters of unbound fraction in plasma (FUp) were experimentally measured values. […]

For `CCCCC1=CCC[C@@]2(C)CC[C@@H]3C[C@]12OC3(C)C` [buagafuran], the Tmax in series [1] (male, Wistar, brain, read-out: time of maximum concentrations in brain) lay within 15 to 30 min. In addition, the “time at which brain concentrations were detected” value in series [1] was determined as 5 min. Further, the Kp in series [2] (brain, oral, optimized by parameter sensitivity analysis, also used for human simulation) is 6.7. In series [2] (optimized by comparing fitting with observed PK data), the “input (refined) CLhep” value is given as 36.8 mL/min/kg.

The values are drawn from PMC5641330, “Prediction of a Therapeutic Dose for Buagafuran, a Potent Anxiolytic Agent by Physiologically Based Pharmacokinetic/Pharmacodynamic Modeling Starting from Pharmacokinetics in Rats and Human” (Frontiers in Pharmacology, 2017).
